For the assay, the target named is T1, Gag-Pol polyprotein [588-1027]/[588-1147] (Human immunodeficiency virus 1, UniProt P04585).
T1 construct: 588-1027; 588-1147
The experiment in a line: Tested for inhibition against HIV-1 RT (used (poly)rC-(oligo)dG as the template).

As usually defined, the IC50 is the concentration at which inhibition is half-maximal. Compound `CCc1cc(CCc2nc3c(o2)CCCC3)c(=O)[nH]c1C` [5-ethyl-6-methyl-3-[2-(4,5,6,7-tetrahydro-1,3-benzoxazol-2-yl)ethyl]-1,2-dihydropyridin-2-one] came in with a 50% inhibitory concentration (IC50) of 0.058 µM. This lies in the double-digit nanomolar range.

Compound `CCc1cc(CCc2nc3ccccc3o2)c(N)nc1C` [3-[2-(1,3-benzoxazol-2-yl)ethyl]-5-ethyl-6-methylpyridin-2-amine] yielded an IC50 of 100 µM.

The record behind these values is BindingDB's records for doi:10.1021/jm00060a002 (Merck Reserch Laboratories, 1993).
